# Data taken from PMC6543040, “Structural and biochemical characterization of Rv0187, an O-methyltransferase from Mycobacterium tuberculosis” (Scientific Reports, 2019).
# B1: Rv0187 fused with a C-terminal His6-tag (pLATE31-Rv0187 construct) (enzyme)
# chain: MDQQPNPPDVDAFLDSTLVGDDPALAAALAASDAAELPRIAVSAQQGKFLCLLAGAIQARRVLEIGTLGGFSTIWLARGAGPQGRVVTLEYQPKHAEVARVNLQRAGVADRVEVVVGPALDTLPTLAGGPFDLVFIDADKENNVAYIQWAIRLARRGAVIVVDNVIRGGGILAESDDADAVAARRTLQMMGEHPGLDATAIQTVGRKGWDGFALALVR
# notes: also called MTB Rv0187; C-terminal His6-tagged construct; not shown: His6, C-terminal, kept
# How the values were obtained:
# [1] = molecular target: T1, Rv0187 (Mycobacterium tuberculosis, UniProt O07431); assay type: biochemical; design: pLATE31-Rv0187 (C-terminal His6-tag)
# T1 sequence (O07431 whole entry): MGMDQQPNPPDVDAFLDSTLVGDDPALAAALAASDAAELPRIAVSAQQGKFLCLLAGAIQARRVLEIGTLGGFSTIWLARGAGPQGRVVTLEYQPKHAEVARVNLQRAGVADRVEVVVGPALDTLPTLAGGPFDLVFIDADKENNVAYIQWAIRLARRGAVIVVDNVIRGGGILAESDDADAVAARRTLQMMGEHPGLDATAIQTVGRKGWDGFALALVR
# [2] = test system: O=C(O)c1ccc(O)c(O)c1; experiment: purified protein; details: SAM; Mg2+
# [3] = test system: O=C(O)/C=C/c1ccc(O)c(O)c1; experiment: purified protein; details: SAM; Mg2+
# [4] = test system: COc1cc(C(=O)O)cc(O)c1O; experiment: purified protein; details: SAM; Mg2+
# [5] = molecular target: T1, Rv0187; experiment: co-crystal structure, […] Å; assay type: binding; design: C-terminal His6-tag after a TEV cleavage site (pLATE31-Rv0187-TEV)
# [6] = molecular target: T1, Rv0187; experiment: biochemical; assay type: binding
# [7] = molecular target: the molecule itself; experiment: SEC
molecule,measurement,setting,value
"O=c1[nH]c(=O)n([C@@H]2O[C@H](CO)[C@@H](O)[C@H]2O)cc1O [ho^5U, 5-hydroxyuridine]","in vitro methyltransfer assay, HPLC/LC-MS",[1],"methylation of 5-hydroxyuridine (ho^5U) yielded a single product, 5-methoxyuridine (mo^5U)"
Rv0187 (Mycobacterium tuberculosis H37Rv),Km,[2],150 ± 20 µM
same,Km,[3],490 ± 170 µM
same,Km,[4],30 ± 4 µM
O=c1c(O)c(-c2ccc(O)c(O)c2)oc2cc(O)cc(O)c12 [quercetin],"in vitro methyltransfer assay, HPLC/LC-MS",[1],"Rv0187 was able to methylate flavonoids (luteolin and quercetin), although the precise methylation site could not be assigned"
"Nc1ncnc2c1ncn2[C@@H]1O[C@H](CSCC[C@H](N)C(=O)O)[C@@H](O)[C@H]1O [SAH, S-adenosyl-l-homocysteine]","co-crystal structure, 1.64 Å",[5],each subunit exhibits the unambiguous presence of a divalent metal ion and SAH
"O=Cc1ccc(O)c(O)c1 [DHA, 3,4-dihydroxy-benzaldehyde]","in vitro methyltransfer assay, HPLC/LC-MS",[1],"DHA, dopamine and CA were preferentially methylated at the meta position"
NCCc1ccc(O)c(O)c1 [dopamine],"in vitro methyltransfer assay, HPLC/LC-MS",[1],"DHA, dopamine and CA were preferentially methylated at the meta position"
"C[S+](CC[C@H](N)C(=O)[O-])C[C@H]1O[C@@H](n2cnc3c(N)ncnc32)[C@H](O)[C@@H]1O (stereo partly drawn) [SAM, S-adenosyl-l-methionine]",Kd,[6],9.3 ± 0.7 µM
"O=C(O)c1cc(O)c(O)c(O)c1 [GA, gallic acid]","in vitro methyltransfer assay, HPLC/LC-MS",[1],"PCA, 5OMeBA, and GA were more readily modified at the para-hydroxyl group"
B1,stoichiometry N,[7],2
